Results published in patent publication US12338262B2 (Forward Therapeutics, Inc., priority 2022, dated 2025).

Each molecule was assayed against TNF-α (Homo sapiens, UniProt P01375) (assay: TNF-α Induced HEK Blue Cellular Assay). Settings: HEK Blue TNFα reporter cells, TNF-α 100 pg/ml, 24 hrs at 37° C., secreted alkaline phosphatase (QUANTI-Blue, 620 nm).
Assay type: cell-based
In short: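 HEK Blue TNFα reporter cells (10,000/well, DMEM + 10% FBS) treated with compound ([…] to 0.5 nM final) and stimulated with 100 pg/ml TNF-α for 24 h at 37 °C. Secreted alkaline phosphatase read with QUANTI-Blue at 620 nm; IC50 by 4-parameter logistic fit after background correction to stimulated/unstimulated DMSO controls.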

Chain of TNF-α (P01375 77-233 limits assumed): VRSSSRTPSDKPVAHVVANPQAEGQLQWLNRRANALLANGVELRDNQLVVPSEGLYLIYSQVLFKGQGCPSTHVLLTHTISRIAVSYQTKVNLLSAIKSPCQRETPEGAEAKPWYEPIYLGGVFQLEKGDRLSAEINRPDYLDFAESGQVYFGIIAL

SMILES | IC50
Cc1nc2cc(F)c(-c3ccc(P(C)(C)=O)nc3)nc2c(NC(C)c2ncccc2F)c1Cl (stereo not shown) [Example 94, 3-chloro-6-[6-(dimethylphosphoryl)pyridin-3-yl]-7-fluoro-N-[1-(3-fluoropyridin-2-yl)ethyl]-2-methyl-1,5-naphthyridin-4-amine] | ≤ 1000 nM
CC[C@@H](Nc1c(Cl)c(C)nc2cc(F)c(-c3ccc(P(C)(C)=O)nc3)nc12)c1cccc(F)c1F [Example 95, (R)-(5-(7-chloro-8-((1-(2,3-difluorophenyl)propyl)amino)-3-fluoro-6-methyl-1,5-naphthyridin-2-yl)pyridin-2-yl)dimethylphosphine oxide] | ≤ 100 nM
CC[C@H](Nc1c(Cl)c(C)nc2cc(F)c(-c3ccc(P(C)(C)=O)nc3)nc12)c1cccc(F)c1F [Example 96, (S)-(5-(7-chloro-8-((1-(2,3-difluorophenyl)propyl)amino)-3-fluoro-6-methyl-1,5-naphthyridin-2-yl)pyridin-2-yl)dimethylphosphine oxide] | ≤ 100 nM
Cc1nc2cc(F)c(-c3ccc(P(C)(C)=O)nc3)c(F)c2c(NC(C)c2ncccc2F)c1Cl (stereo not shown) [Example 97, 3-chloro-6-[6-(dimethylphosphoryl)pyridin-3-yl]-5,7-difluoro-N-[1-(3-fluoropyridin-2-yl)ethyl]-2-methylquinolin-4-amine] | ≤ 1000 nM
C#Cc1ccc(F)c([C@@H](C)Nc2c(Cl)c(C)nc3cc(F)c(-c4ccc(P(C)(C)=O)nc4)nc23)c1 [Example 98, 3-chloro-6-[6-(dimethylphosphoryl)pyridin-3-yl]-N-[(1R)-1-(5-ethynyl-2-fluorophenyl)ethyl]-7-fluoro-2-methyl-1,5-naphthyridin-4-amine] | ≤ 1000 nM
Cc1nc2cc(F)c(-c3ccc(P(C)(C)=O)nc3)nc2c(N[C@H](C)c2cc(F)cc(C#N)c2)c1Cl [Example 99, 3-[(1R)-1-({3-chloro-6-[6-(dimethylphosphoryl)pyridin-3-yl]-7-fluoro-2-methyl-1,5-naphthyridin-4-yl}amino)ethyl]-5-fluorobenzonitrile] | ≤ 1000 nM
CC[C@@H](Nc1c(Cl)c(C)nc2cc(F)c(-c3ccc(P(C)(C)=O)nc3)cc12)c1ncccc1F [Example 102, 3-chloro-6-[6-(dimethylphosphoryl)pyridin-3-yl]-7-fluoro-N-[(1R)-1-(3-fluoropyridin-2-yl)propyl]-2-methylquinolin-4-amine] | ≤ 1000 nM
Cc1nc2cc(F)c(-c3ccc(P4(=O)CCOCC4)nc3)cc2c(N[C@H](C)c2cccc(F)c2F)c1Cl [Example 103, 4-[5-(3-chloro-4-{[(1R)-1-(2,3-difluorophenyl)ethyl]amino}-7-fluoro-2-methylquinolin-6-yl)pyridin-2-yl]-1,4lambda5-oxaphosphinan-4-one] | 10000 to 30000 nM
CCC(Nc1c(Cl)c(C)nc2cc(F)c(-c3ccc(P(C)(C)=O)nc3)nc12)c1cnn(C)c1 (stereo not shown) [Example 104, 3-chloro-6-[6-(dimethylphosphoryl)pyridin-3-yl]-7-fluoro-2-methyl-N-[1-(1-methylpyrazol-4-yl)propyl]-1,5-naphthyridin-4-amine] | ≤ 1000 nM
Cc1nc2cc(F)c(-c3ccc(OCP(C)(C)=O)nc3)cc2c(N[C@H](C)c2ccccc2F)c1Cl [Example 105, 3-chloro-6-{6-[(dimethylphosphoryl)methoxy]pyridin-3-yl}-7-fluoro-N-[(1R)-1-(2-fluorophenyl)ethyl]-2-methylquinolin-4-amine] | ≤ 1000 nM
Cc1nc2cc(F)c(-c3ccc(P(C)(C)=O)nc3)nc2c(N[C@H](C)c2cc(C#N)cc(F)c2F)c1Cl [Example 106, 3-[(1R)-1-({3-chloro-6-[6-(dimethylphosphoryl)pyridin-3-yl]-7-fluoro-2-methyl-1,5-naphthyridin-4-yl}amino)ethyl]-4,5-difluorobenzonitrile] | ≤ 100 nM
Cc1nc2cc(F)c(-c3cnc(P(C)(C)=O)c(F)c3)nc2c(N[C@H](C)c2cccc(F)c2F)c1Cl [Example 107, 3-chloro-N-[(1R)-1-(2,3-difluorophenyl)ethyl]-6-[6-(dimethylphosphoryl)-5-fluoropyridin-3-yl]-7-fluoro-2-methyl-1,5-naphthyridin-4-amine] | ≤ 1000 nM
CC[C@@H](Nc1c(Cl)c(C)nc2cc(F)c(-c3ccc(OCP(C)(C)=O)nc3)nc12)c1ncccc1F [Example 108, 3-chloro-6-{6-[(dimethylphosphoryl)methoxy]pyridin-3-yl}-7-fluoro-N-[(1R)-1-(3-fluoropyridin-2-yl)propyl]-2-methyl-1,5-naphthyridin-4-amine] | ≤ 1000 nM
Cc1nc2cc(F)c(-c3ccc(P(C)(C)=O)nc3)nc2c(NC2(c3ccccn3)CC2)c1Cl [Example 111, 3-chloro-6-[6-(dimethylphosphoryl)pyridin-3-yl]-7-fluoro-2-methyl-N-[1-(pyridin-2-yl)cyclopropyl]-1,5-naphthyridin-4-amine] | ≤ 100 nM
Cc1nc2cc(F)c(-c3ccc(P(C)(C)=O)nc3)cc2c(N[C@H](C)c2cc(F)cc(F)c2)c1Cl [Example 112, 3-chloro-N-[(1R)-1-(3,5-difluorophenyl)ethyl]-6-[6-(dimethylphosphoryl)pyridin-3-yl]-7-fluoro-2-methylquinolin-4-amine] | ≤ 1000 nM
CC[C@@H](Nc1c(Cl)c(C)nc2cc(F)c(-c3cnc(P(C)(C)=O)nc3)nc12)c1cccc(F)c1F [Example 113, (R)-(5-(7-chloro-8-((1-(2,3-difluorophenyl)propyl)amino)-3-fluoro-6-methyl-1,5-naphthyridin-2-yl)pyrimidin-2-yl)dimethylphosphine oxide] | ≤ 1000 nM
CC[C@@H](Nc1c(Cl)c(C)nc2cc(F)c(-c3cnc(P(C)(C)=O)nc3)cc12)c1cccc(F)c1F [Example 114, (R)-(5-(3-chloro-4-((1-(2,3-difluorophenyl)propyl)amino)-7-fluoro-2-methylquinolin-6-yl)pyrimidin-2-yl)dimethylphosphine oxide] | ≤ 100 nM
CC[C@H](Nc1c(Cl)c(C)nc2cc(F)c(-c3cnc(P(C)(C)=O)nc3)cc12)c1cccc(F)c1F [Example 115, (S)-(5-(3-chloro-4-((1-(2,3-difluorophenyl)propyl)amino)-7-fluoro-2-methylquinolin-6-yl)pyrimidin-2-yl)dimethylphosphine oxide] | ≤ 1000 nM
Cc1nc2cc(F)c(-c3ccc(P(C)(C)=O)c(F)c3)nc2c(N[C@H](C)c2cccc(Cl)c2F)c1Cl [Example 118, 3-chloro-N-[(1R)-1-(3-chloro-2-fluorophenyl)ethyl]-6-[4-(dimethylphosphoryl)-3-fluorophenyl]-7-fluoro-2-methyl-1,5-naphthyridin-4-amine] | ≤ 1000 nM
Cc1nc2cc(F)c(-c3ccc(P(C)(C)=O)nc3)nc2c(N[C@H](C)c2cc(C#N)ccc2F)c1C [Example 119, 3-[(1R)-1-({6-[6-(dimethylphosphoryl)pyridin-3-yl]-7-fluoro-2,3-dimethyl-1,5-naphthyridin-4-yl}amino)ethyl]-4-fluorobenzonitrile] | ≤ 1000 nM
Cc1nc2cc(F)c(-c3cnc(P(C)(C)=O)c(F)c3)nc2c(N[C@H](C)c2cc(C#N)ccc2F)c1Cl [Example 120, 3-[(1R)-1-({3-chloro-6-[6-(dimethylphosphoryl)-5-fluoropyridin-3-yl]-7-fluoro-2-methyl-1,5-naphthyridin-4-yl}amino)ethyl]-4-fluorobenzonitrile] | ≤ 100 nM
Cc1nc2cc(F)c(-c3cnc(OCP(C)(C)=O)nc3)nc2c(N[C@H](C)c2cc(C#N)ccc2F)c1Cl [Example 121, 3-[(1R)-1-[(3-chloro-6-{2-[(dimethylphosphoryl)methoxy]pyrimidin-5-yl}-7-fluoro-2-methyl-1,5-naphthyridin-4-yl)amino]ethyl]-4-fluorobenzonitrile] | ≤ 100 nM
Cc1nc2cc(F)c(-c3ccc(P(C)(C)=O)nc3)nc2c(N[C@@H](C)c2nc(C#N)ccc2F)c1Cl [Example 122, 6-[(1S)-1-({3-chloro-6-[6-(dimethylphosphoryl)pyridin-3-yl]-7-fluoro-2-methyl-1,5-naphthyridin-4-yl}amino)ethyl]-5-fluoropyridine-2-carbonitrile] | ≤ 100 nM
Cc1nc2cc(F)c(-c3ccc(P(C)(C)=O)nc3)nc2c(N[C@H](C)c2nc(C#N)ccc2F)c1Cl [Example 123, 6-[(1R)-1-({3-chloro-6-[6-(dimethylphosphoryl)pyridin-3-yl]-7-fluoro-2-methyl-1,5-naphthyridin-4-yl}amino)ethyl]-5-fluoropyridine-2-carbonitrile] | ≤ 1000 nM
Cc1nc2cc(F)c(-c3cnc(OCP(C)(C)=O)nc3)nc2c(N[C@H](C)c2cccc(F)c2F)c1Cl [Example 124, 3-chloro-N-[(1R)-1-(2,3-difluorophenyl)ethyl]-6-{2-[(dimethylphosphoryl)methoxy]pyrimidin-5-yl}-7-fluoro-2-methyl-1,5-naphthyridin-4-amine] | ≤ 1000 nM
CC[C@@H](Nc1c(Cl)c(C)nc2cc(F)c(-c3cnc(OCP(C)(C)=O)nc3)nc12)c1cccc(F)c1F [Example 125, 3-chloro-N-[(1R)-1-(2,3-difluorophenyl)propyl]-6-{2-[(dimethylphosphoryl)methoxy]pyrimidin-5-yl}-7-fluoro-2-methyl-1,5-naphthyridin-4-amine] | ≤ 1000 nM
CC[C@H](Nc1c(Cl)c(C)nc2cc(F)c(-c3cnc(OCP(C)(C)=O)nc3)nc12)c1cccc(F)c1F [Example 126, 3-chloro-N-[(1S)-1-(2,3-difluorophenyl)propyl]-6-{2-[(dimethylphosphoryl)methoxy]pyrimidin-5-yl}-7-fluoro-2-methyl-1,5-naphthyridin-4-amine] | ≤ 100 nM
CC[C@H](Nc1c(Cl)c(C)nc2cc(F)c(-c3cnc(P(C)(C)=O)nc3)nc12)c1cccc(F)c1F [Example 127, 3-chloro-N-[(1S)-1-(2,3-difluorophenyl)propyl]-6-[2-(dimethylphosphoryl)pyrimidin-5-yl]-7-fluoro-2-methyl-1,5-naphthyridin-4-amine] | ≤ 1000 nM
